System: HeLa
Assay: Cytotoxicity against human HeLa cells
Format: functional, cell-based

| SMILES | IC50 [µM] |
| --- | --- |
| CCCCCCCCCCCCCCCCCC(OC(=O)[C@H](CCCCN(O)C=O)NC(=O)[C@H]1N=C(c2ccccc2O)O[C@@H]1C)C(C)C(=O)N[C@@H]1CCCCN(O)C1=O (stereo partly drawn) | 16.7 |
| CCCCCCCCCCCCCCCC(OC(=O)[C@H](CCCCN(O)C=O)NC(=O)[C@H]1N=C(c2ccccc2O)O[C@@H]1C)C(C)C(=O)N[C@@H]1CCCCN(O)C1=O (stereo partly drawn) | 16.7 |
| CCCCCCCCCCCCC/C=C\CCC(OC(=O)[C@H](CCCCN(O)C=O)NC(=O)[C@H]1N=C(c2ccccc2O)O[C@@H]1C)C(C)C(=O)N[C@@H]1CCCCN(O)C1=O (stereo partly drawn) | 16.7 |

Reference: ChEMBL document CHEMBL6109042, “Metabologenomics-Driven Discovery of Nocardimicins from a Psychrophilic Nocardia sp. Strain” (J Nat Prod, 2025)
